Results from patent US7759399B2, “Pharmaceutical compositions” (priority 2002, dated 2010).
Like-named read-outs stand apart in the source and are kept apart here.

What was measured:
NF-κB [1] = test: NF-κB-dependent luciferase reporter gene assay, HeLa κB-transformed cells, TPA stimulated; format: cell-based; settings: 8 h treatment, TPA 25 ng/ml 2 h after exposure, read-out: NF-κB, IC50 (concentration at which the compound halved the NF-κB activity)
Protocol: (§1) Method: HeLa cell clone 13B, stably transfected with a luciferase reporter plasmid controlled by the human hsp70 promoter, and HeLa κB-transformed cells, stably transfected with a luciferase reporter plasmid controlled by a synthetic NF-κB-STM construct, were maintained in DMEM medium supplemented with 10% FBS, L-glutamine (2 mM) and G418 (250 μg/ml) at 37° C. in a 5% CO2 humidified atmosphere.
(§2) Cells were seeded at a density of 4×10^4 cells/well in 96-well plates. After 18-20 h, the medium was removed and cells were treated for 8 h with the test compounds (100 μl) at the appropriate dilutions in serum-free medium. For the NF-κB-dependent reporter gene assay, cells were stimulated with TPA (25 ng/ml) 2 h after exposure to the compounds.
(§3) After incubation, the medium was removed and cells were lysed in 10 μl of lysis buffer. The luciferase activity was determined by adding 100 μl of substrate and measuring the release of light using a Victor 1420 microplate reader (Wallac, Finland).
(§4) The fragment Kpn I-BamH I from the pGL3 basic vector containing the luciferase gene (PROMEGA) was inserted in the pcDNA3 vector (INVITROGEN) digested with Bgl II-KpnI. (This digestion removes the CMV-promoter from pcDNA3.) The resulting new vector was digested with Kpn I-Hind III and a promoter containing a ‘5xNF-κB binding sites—TATA box’ sequence was inserted upstream of the luciferase gene. This vector has been named STM.
(§5) To obtain stable HeLa cell lines expressing the luciferase gene under the control of NF-κB, HeLa cells were transfected (using lipofectamine plus GIBCO) with the STM-Pvu I linearized vector, and selected for 20 days with G418 (800 μg/ml). After selection, the resistant HeLa cell pool was controlled (in quadruplicate samples) for luciferase activity after stimulation with TNFα, IL-1 and TPA.
(§6) The AC200/μM for HSF is the concentration at which the tested compound doubled the HSF activity in this assay. The IC50/μM for NF-κB is the concentration at which the tested compound halved the NF-κB activity in this assay.

uninfected 37RC cells [2] = settings: monkey
Sendai virus = Sendai virus replication in 37RC cells (virus yield by HAU titration); format: cell-based; settings: Respirovirus muris, 5 HAU/10^5 cells, virus yield at 24 hours after infection, read-out: ID50 (50% inhibitory dose/concentration), Sendai virus yield
HSF = HSF luciferase reporter assay, HeLa cell clone 13B (human hsp70 promoter); format: cell-based; settings: 8 h, HeLa clone 13B, 8 h treatment, serum-free medium, read-out: HSF, AC200 (concentration at which the compound doubled the HSF activity)
Protocol: as §1, §2, §3, §6

in vitro = format: cell-based; settings: 37RC cells, 24 h treatment; read-out: LC50 (50% lethal dose/concentration), Neutral Red
Protocol: (§7) Cell viability was determined using the Neutral Red assay. 37RC cells were seeded at density of 6×10^4 cells/well in 24-well plates and incubated for 24 h. Confluent 37RC monolayers were treated with the test compounds at different dilutions for 24 h at 37° C. After incubation, the medium was removed and the cells were incubated with RPMI medium containing 40 μg/ml Neutral Red dye (500 μl/well). After 2 h at 37° C., the monolayers were washed with phosphate-buffered saline (PBS) and then with a solution containing 1% CaCl2 and 0.5% formaldehyde. After washing, a solution containing 1% acetic acid/50% ethanol was added to the monolayers (250 μl/well). After 10 min at room temperature, the absorbance was determined with a microplate reader (Victor 1420, Wallac) at 540 nm.

37RC cells = test: in vitro; format: cell-based; settings: 24 h treatment, read-out: LC50 (50% lethal dose/concentration), Neutral Red
Protocol: as §7

HSF1 = settings: concentration of 125-500 μM; cited from earlier work
NF-κB [3] = settings: same concentration (125-500 μM); cited from earlier work
NF-κB [4] = test: EMSA of NF-κB DNA-binding activity in TPA-stimulated Jurkat T cells; format: cell-based, Human; settings: Jurkat T cells treated 1 hour, then TPA 25 ng/ml, extracts after 3 hours; FIGS. 1(b)-6(b)
Protocol: Methods: Human lymphoblastoid Jurkat T cells were grown at 37° C. in a 5% CO2 atmosphere in RPM1 1640 medium (GIBCO BRL, Gaithersburg, Md.) supplemented with 10% fetal calf serum (FCS, Hyclone Europe Ltd, UK) 2 mM glutamine and antibiotics according to the method described by A. Rossi et al. (Proc. Natl. Acad. Sci. USA 94: 746-750, 1997). The test compounds were stored as a 100% ethanolic stock solution (100 mM) or in DMSO (100 mM) and diluted to the appropriate concentration in culture medium at the time of use. Cells were treated with different concentrations of test compound for 1 hour and then stimulated with 12-O-tetradecanoylphorbol-13-acetate (TPA, 25 ng/ml), which is a strong inducer of NF-κB. Control cells received an equal amount of control diluent. After 3 hours whole-cell extracts were prepared and subjected to analysis of DNA-binding activity by EMSA (Electrophoretic Mobility Shift Assay) for detection of HSF or NF-κB activation, according to the method described by A. Rossi et al. (Proc. Natl. Acad. Sci. USA 94: 746-750, 1997).
Specificity of protein-DNA complexes was verified by immunoreactivity with polyclonal antibodies specific for p65 (Rel A) or for HSF-1, for NF-κB and HSF respectively. Quantitative evaluation of NF-κB and HSF-DNA complex formation was determined by Molecular Dynamics Phosphorimager (MDP) analysis and was expressed in arbitrary units, as described in A. Rossi et al. (J. Biol. Chem. 273: 16446-16452, 1998). The results from representative experiments are shown in FIGS. 1(b), 2(b), 3(b), 4(b), 5 and 6(b) for compounds CTM-50, CTM-49, CTM-36, CTM-30, CTC-130 and CTC-109, as identified above.

uninfected 37RC cells [5] = test: Toxicity to uninfected cells, determined visually by microscopy (TD100)
[6] = Alamar Blue cytotoxicity assay; format: cell-based; settings: human
Protocol: HeLa cells were plated in 96-well microtiter plates in 100 μl culture medium (4×10^4/well). After 20 hours, the cells were exposed to the test compounds at different dilutions and incubated for the next 8 h at 37° C. in a 5% CO2 humidified atmosphere. After 6 h incubation, the Alamar Blue was added in an amount equal to 10% of the culture volume (10 μl). Two hours after the addition of the Alamar Blue, the fluorescence was measured using a Victor 1420 microplate reader.
The LC50/μM is the concentration at which the tested compound killed half the cells in this assay.

[7] = doses from 30 μg/kg/min; cited from earlier work
NF-κB [8] = test: Luciferase activity of G418-resistant HeLa cell pool transfected with NF-κB-LUC after stimulation; format: cell-based; settings: NF-κB-LUC (STM vector), quadruplicate samples, control 1369±149
From the text: as §4, §5

Row | IC50 (Sendai virus; 24 h) [µM] | Compound | IC50 (NF-κB [1]; Homo sapiens, HeLa) [µM] | TD100 (dose or concentration at which the compound was 100% toxic to uninfected cells) (uninfected 37RC cells [2]) [µM] | EC (2-fold) (HSF) [µM] | CC50 at 24 h (in vitro) [µM] | IC50 (Sendai virus) [µM] | NF-κB-DNA complex formation (EMSA), result in words (NF-κB [4]) | further results
1 | 4 | CC(C)(C)C(=O)OC1[C@@H](Sc2ccc3ccccc3c2)CC(=O)C1(C)C (stereo in doubt) [CTM-191, 2,2-dimethylpropionic acid (1R,5S)-2,2-dimethyl-5-(naphthalen-2-ylsulfanyl)-3-oxocyclopentyl ester] | 25 | 50 | 18 | 24 | – | – | –
2 | – | CC(C)(C)C(=O)O[C@H]1[C@H](Sc2ccc3ccccc3c2)CC(=O)C1(C)C (stereo in doubt) [CTM-192, 2,2-dimethylpropionic acid (1R,5R)-2,2-dimethyl-5-(naphthalen-2-ylsulfanyl)-3-oxocyclopentyl ester] | – | 50 | – | – | – | – | IC50 (NF-κB [1]): 28 µM; CC50 (37RC cells): 22 µM
3 | 3 | CC(C)(C)C(=O)OC1[C@H](Sc2ccc3ccccc3c2)CC(=O)C1(C)C (stereo in doubt) [CTM-193, 2,2-dimethylpropionic acid (1S,5R)-2,2-dimethyl-5-(naphthalen-2-ylsulfanyl)-3-oxocyclopentyl ester] | 32 | 50 | 26 | 23 | – | – | –
4 | – | O=C1C=CCC1 [CTC-1, cyclopent-2-en-1-one, reference compound] | – | >500 | – | – | 90 | – | HSF1 activation, result in words (HSF1): able to activate HSF1; block of NF-κB activation by chemical or physiological inducers, result in words (NF-κB [3]): able to block NF-κB activation
5 | 3 | COC(=O)[C@H](CSC1C=CC(=O)C1)NC(=O)OC(C)(C)C (stereo partly shown) [CTC-109] | – | 500 | – | – | – | inhibitors of NF-κB | –
6 | – | COC(=O)[C@H](CSC1C=C(C(SC[C@H](NC(=O)OC(C)(C)C)C(=O)OC)C(C)C)C(=O)C1)NC(=O)OC(C)(C)C (stereo partly shown) [CTC-130] | – | – | – | – | – | inhibitors of NF-κB | –
7 | – | COC(=O)[C@H](CSC1CC(=O)C[C@@H]1O[Si](C)(C)C(C)(C)C)NC(=O)OC(C)(C)C (stereo partly shown) [CTM-36] | – | – | – | – | 4 | inhibitors of NF-κB | TD100 (dose or concentration at which the compound was 100% toxic to uninfected cells) (uninfected 37RC cells [5]): >500 µM
8 | 20 | COC(=O)[C@H](CSC1CCC(=O)C1)NC(=O)OC(C)(C)C (stereo partly shown) [CTM-49] | – | >500 | – | – | – | inhibitors of NF-κB | –
9 | 10 | COC(=O)[C@H](CSC1=CC(=O)CC1)NC(=O)OC(C)(C)C [CTM-50] | – | >500 | – | – | – | inhibitors of NF-κB | –
10 | – | CC(C)(C)[Si](C)(C)O[C@H]1CC(=O)C[C@@H]1Sc1ccncc1 [CTM-132] | 33 | – | 13 | 2.6 | 0.2 | – | TD100 (dose or concentration at which the compound was 100% toxic to uninfected cells) (uninfected 37RC cells [5]): 10 µM; CC50 at 8 h [6]: 220 µM
11 | – | CC(C)(C)[Si](C)(C)O[C@H]1CC(=O)C[C@@H]1SCCS(=O)(=O)O [CTM-165] | 50 | – | 26 | 21 | 1 | – | TD100 (dose or concentration at which the compound was 100% toxic to uninfected cells) (uninfected 37RC cells [5]): 50 µM; CC50 at 8 h [6]: > 800 µM
12 | – | COc1ccc(S[C@H]2CC(=O)C[C@@H]2O[Si](C)(C)C(C)(C)C)cc1 [CTM-169] | 38 | – | 26 | 22 | 1.5 | – | TD100 (dose or concentration at which the compound was 100% toxic to uninfected cells) (uninfected 37RC cells [5]): 50 µM; CC50 at 8 h [6]: > 800 µM
13 | – | CCCCC[C@H](O)/C=C/[C@H]1C=CC(=O)[C@@H]1CCCCCCC(=O)O [Prostaglandin A1] | – | – | – | – | – | – | effect on blood pressure [7]: dose-dependant falls in blood pressure
14 | – | CCCCC[C@H](O)/C=C/[C@H]1[C@H](O)CC(=O)[C@@H]1CCCCCCC(=O)O [Prostaglandin E1] | – | – | – | – | – | – | effect on blood pressure [7]: dose-dependant falls in blood pressure
15 | – | CCCCCCCCCCCCCC(=O)O[C@@H]1[C@@H](C)[C@@]2(O)[C@@H](C=C(CO)C[C@]3(O)C(=O)C(C)=C[C@@H]23)[C@@H]2C(C)(C)[C@]12OC(C)=O [TPA, 12-O-tetradecanoylphorbol-13-acetate] | – | – | – | – | – | – | luciferase activity (NF-κB [8]): 7181±444
16 | – | TNFα | – | – | – | – | – | – | luciferase activity (NF-κB [8]): 6111±1231
